Numbered stars: 1 amine (or outer) side, 2 acyl side, 3 side chain; on linkers, the order of the positions; unused ones are H or OH. Bridge positions count the residues as written; N and C are the ends. Square brackets hold non-standard residues; d marks the D form. Peptide text beside a SMILES is read from it. * marks the point of attachment. NH(CH2)8CO = O=C(CCCCCCCCN[*:1])[*:2]; Isobutyryl = CC(C)C(=O)*; Orn = NCCC[C@H](N)C(=O)O; Dab = NCC[C@H](N)C(=O)O; Dap = NC[C@H](N)C(=O)O
Test system: MCP-1
Test: In vitro chemotaxis (trans-well migration) v MCP-1
Format: cell-based, human
Procedure: To determine whether an agent inhibits a chemokine-induced activity, such as macrophage recruitment, varying amounts of the agent are mixed with cells in the presence of a known chemoattractant. For example, a range of known concentrations of an agent, e.g., a chemokine peptide, is incubated with a defined number (e.g., 10^4-10^6) of human THP-1 monocyte cells in individual wells of the top compartment of a trans-well plate. Chemokine, at a concentration known to cause significant migration of THP-1 cells in the trans-well migration assay, is placed in the lower compartment of a trans-well plate. Cells are then incubated at 37° C. for a period sufficient to allow migration, e.g., 4 hours. After incubation, the cells are gently removed from the top of the filter with a pipette, 20 μl of 20 mM EDTA in simple PBS is added into each top well, and incubated for 20 minutes at 4° C. The filter is carefully flushed with media using a gentle flow, and removed. A standard curve consisting of a two-fold dilution series of THP-1 cells (in 29 μl) is placed to accurately quantify the number of cells that have migrated. Migrated cells are stained with 3 μl of MTT stock dye solution which is added directly into each well (5 mg/ml in RPMI-1640 without phenol red) (Sigma Chemical Co., St. Louis, Mo., USA) and incubated at 37° C. for 4 hours. The media is carefully aspirated from each well, and the converted dye is solubilized by 20 μl of DMSO. Absorbance of converted dye is measured at a wavelength of 595 nm using an ELISA plate reader. The number of migrated cells in each well is then determined by interpolation of the standard curve (see also Imai et al., J. Biol. Chem., 272:15036, 1997). Any method suitable for counting cells can be used, for example, counting with a hemocytometer, incubation of the cells with MTT (see above), or FACS analysis. A negative control assay is also performed, using TGFβ or another non-chemokine chemoattractant (e.g., IL1β or TNFα). To assess whether the agent is cytotoxic, the same concentrations of agent are incubated with THP-1 cells. Agents which 1) are not cytotoxic at levels which inhibit migration, 2) are ineffective at inhibiting the negative control-induced migration, and 3) reduce or inhibit chemokine-induced THP-1 migration, are agents which fall within the scope of the invention.

SMILES	EC50 [nM]
CC[C@H](C)[C@@H]1NC(=O)[C@H](Cc2c[nH]c3ccccc23)NC(=O)[C@H](CCCCN)NC(=O)CCCCCCCCNC(=O)CC[C@@H](C(N)=O)NC(=O)[C@H](CCC(N)=O)NC1=O [Example 98, c(Anc-Lys-Trp-Ile-Gln-Glu)-NH2] ([NH(CH2)8CO]KWIQE-NH2; lactam N-6)	15
CC[C@H](C)[C@@H]1NC(=O)[C@H](Cc2c[nH]c3ccccc23)NC(=O)[C@H](CCCCN)NC(=O)[C@@H](NC(=O)C(C)C)CCC(=O)NCCC[C@@H](C(N)=O)NC(=O)[C@H](CCC(N)=O)NC1=O [Example 102, Isobutyryl-c(Glu-Lys-Trp-Ile-Gln-Orn)-NH2] (Isobutyryl-EKWIQ[Orn]-NH2; lactam 1-6)	10
CC[C@H](C)[C@@H]1NC(=O)[C@H](Cc2c[nH]c3ccccc23)NC(=O)[C@H](CCCCN)NC(=O)[C@@H](NC(=O)C(C)C)CCC(=O)NCCCC[C@@H](C(N)=O)NC(=O)[C@H](CCC(N)=O)NC1=O [Example 103, Isobutyryl-c(Glu-Lys-Trp-Ile-Gln-Lys)-NH2] (Isobutyryl-EKWIQK-NH2; lactam 1-6)	8
CC[C@H](C)[C@@H]1NC(=O)[C@H](Cc2c[nH]c3ccccc23)NC(=O)[C@H](CCCCN)NC(=O)[C@@H](NC(=O)C(C)C)CCCNC(=O)CC[C@@H](C(N)=O)NC(=O)[C@H](CCC(N)=O)NC1=O [Example 108, Isobutyryl-c(Orn-Lys-Trp-Ile-Gln-Glu)-NH2] (Isobutyryl-[Orn]KWIQE-NH2; lactam 1-6)	8
CC[C@H](C)[C@@H]1NC(=O)[C@H](Cc2c[nH]c3ccccc23)NC(=O)[C@H](CCCCN)NC(=O)[C@@H](NC(=O)C(C)C)CCCCNC(=O)CC[C@@H](C(N)=O)NC(=O)[C@H](CCC(N)=O)NC1=O [Example 109, Isobutyryl-c(Lys-Lys-Trp-Ile-Gln-Glu)-NH2] (Isobutyryl-KKWIQE-NH2; lactam 1-6)	8
CC[C@H](C)[C@@H]1NC(=O)[C@H](Cc2c[nH]c3ccccc23)NC(=O)[C@H](CCCCN)NC(=O)[C@@H](NC(C)=O)CC(=O)NCC[C@@H](C(N)=O)NC(=O)[C@H](CCC(N)=O)NC1=O [Example 111, Ac-c(Asp-Lys-Trp-Ile-Gln-Dab)-NH2] (Ac-DKWIQ[Dab]-NH2; lactam 1-6)	4
CC[C@H](C)[C@@H]1NC(=O)[C@H](Cc2c[nH]c3ccccc23)NC(=O)[C@H](CCCCN)NC(=O)[C@@H](NC(C)=O)CC(=O)NCCC[C@@H](C(N)=O)NC(=O)[C@H](CCC(N)=O)NC1=O [Example 112, Ac-c(Asp-Lys-Trp-Ile-Gln-Orn)-NH2] (Ac-DKWIQ[Orn]-NH2; lactam 1-6)	6
CC[C@H](C)[C@@H]1NC(=O)[C@H](Cc2c[nH]c3ccccc23)NC(=O)[C@H](CCCCN)NC(=O)[C@@H](NC(C)=O)CCC(=O)NC[C@@H](C(N)=O)NC(=O)[C@H](CCC(N)=O)NC1=O [Example 113, Ac-c(Glu-Lys-Trp-Ile-Gln-Dap)-NH2] (Ac-EKWIQ[Dap]-NH2; lactam 1-6)	30
CC[C@H](C)[C@@H]1NC(=O)[C@H](Cc2c[nH]c3ccccc23)NC(=O)[C@H](CCCCN)NC(=O)[C@@H](NC(C)=O)CCC(=O)NCC[C@@H](C(N)=O)NC(=O)[C@H](CCC(N)=O)NC1=O [Example 114, Ac-c(Glu-Lys-Trp-Ile-Gln-Dab)-NH2] (Ac-EKWIQ[Dab]-NH2; lactam 1-6)	8
CC[C@H](C)[C@@H]1NC(=O)[C@H](Cc2c[nH]c3ccccc23)NC(=O)[C@H](CCCCN)NC(=O)[C@@H](NC(C)=O)CCC(=O)NCCC[C@@H](C(N)=O)NC(=O)[C@H](CCC(N)=O)NC1=O [Example 115, Ac-c(Glu-Lys-Trp-Ile-Gln-Orn)-NH2] (Ac-EKWIQ[Orn]-NH2; lactam 1-6)	5
CC[C@H](C)[C@@H]1NC(=O)[C@H](Cc2c[nH]c3ccccc23)NC(=O)[C@H](CCCCN)NC(=O)[C@@H](NC(C)=O)CCC(=O)NCCCC[C@@H](C(N)=O)NC(=O)[C@H](CCC(N)=O)NC1=O [Example 116, Ac-c(Glu-Lys-Trp-Ile-Gln-Lys)-NH2] (Ac-EKWIQK-NH2; lactam 1-6)	8
CC[C@H](C)[C@@H]1NC(=O)[C@H](Cc2c[nH]c3ccccc23)NC(=O)[C@H](CCCCN)NC(=O)[C@@H](NC(C)=O)CCNC(=O)C[C@@H](C(N)=O)NC(=O)[C@H](CCC(N)=O)NC1=O [Example 118, Ac-c(Dab-Lys-Trp-Ile-Gln-Asp)-NH2] (Ac-[Dab]KWIQD-NH2; lactam 1-6)	8
CC[C@H](C)[C@@H]1NC(=O)[C@H](Cc2c[nH]c3ccccc23)NC(=O)[C@H](CCCCN)NC(=O)[C@@H](NC(C)=O)CCCNC(=O)C[C@@H](C(N)=O)NC(=O)[C@H](CCC(N)=O)NC1=O [Example 119, Ac-c(Orn-Lys-Trp-Ile-Gln-Asp)-NH2] (Ac-[Orn]KWIQD-NH2; lactam 1-6)	8
CC[C@H](C)[C@@H]1NC(=O)[C@H](Cc2c[nH]c3ccccc23)NC(=O)[C@H](CCCCN)NC(=O)[C@@H](NC(C)=O)CCCCNC(=O)C[C@@H](C(N)=O)NC(=O)[C@H](CCC(N)=O)NC1=O [Example 120, Ac-c(Lys-Lys-Trp-Ile-Gln-Asp)-NH2] (Ac-KKWIQD-NH2; lactam 1-6)	8

Now from value to compound:

EC50 [nM]	SMILES
50	CC[C@H](C)[C@@H]1NC(=O)[C@H](Cc2c[nH]c3ccccc23)NC(=O)[C@H](CCCCN)NC(=O)[C@@H](NC(=O)C(C)C)CC(=O)NCCC[C@@H](C(N)=O)NC(=O)[C@H](CCC(N)=O)NC1=O [Example 99, Isobutyryl-c(Asp-Lys-Trp-Ile-Gln-Orn)-NH2] (Isobutyryl-DKWIQ[Orn]-NH2; lactam 1-6)
10	CC[C@H](C)[C@@H]1NC(=O)[C@H](Cc2c[nH]c3ccccc23)NC(=O)[C@H](CCCCN)NC(=O)[C@@H](NC(=O)C(C)C)CCC(=O)NC[C@@H](C(N)=O)NC(=O)[C@H](CCC(N)=O)NC1=O [Example 100, Isobutyryl-c(Glu-Lys-Trp-Ile-Gln-Dap)-NH2] (Isobutyryl-EKWIQ[Dap]-NH2; lactam 1-6)
4	CC[C@H](C)[C@@H]1NC(=O)[C@H](Cc2c[nH]c3ccccc23)NC(=O)[C@H](CCCCN)NC(=O)[C@@H](NC(=O)C(C)C)CCC(=O)NCC[C@@H](C(N)=O)NC(=O)[C@H](CCC(N)=O)NC1=O [Example 101, Isobutyryl-c(Glu-Lys-Trp-Ile-Gln-Dab)-NH2] (Isobutyryl-EKWIQ[Dab]-NH2; lactam 1-6)
50	CC[C@H](C)[C@@H]1NC(=O)[C@H](Cc2c[nH]c3ccccc23)NC(=O)[C@H](CCCCN)NC(=O)[C@@H](NC(=O)C(C)C)CNC(=O)C[C@@H](C(N)=O)NC(=O)[C@H](CCC(N)=O)NC1=O [Example 104, Isobutyryl-c(Dap-Lys-Trp-Ile-Gln-Asp)-NH2] (Isobutyryl-[Dap]KWIQD-NH2; lactam 1-6)
15	CC[C@H](C)[C@@H]1NC(=O)[C@H](Cc2c[nH]c3ccccc23)NC(=O)[C@H](CCCCN)NC(=O)[C@@H](NC(=O)C(C)C)CCNC(=O)C[C@@H](C(N)=O)NC(=O)[C@H](CCC(N)=O)NC1=O [Example 105, Isobutyryl-c(Dab-Lys-Trp-Ile-Gln-Asp)-NH2] (Isobutyryl-[Dab]KWIQD-NH2; lactam 1-6)
8	CC[C@H](C)[C@@H]1NC(=O)[C@H](Cc2c[nH]c3ccccc23)NC(=O)[C@H](CCCCN)NC(=O)[C@@H](NC(=O)C(C)C)CCCCNC(=O)C[C@@H](C(N)=O)NC(=O)[C@H](CCC(N)=O)NC1=O [Example 106, Isobutyryl-c(Lys-Lys-Trp-Ile-Gln-Asp)-NH2] (Isobutyryl-KKWIQD-NH2; lactam 1-6)
8	CC[C@H](C)[C@@H]1NC(=O)[C@H](Cc2c[nH]c3ccccc23)NC(=O)[C@H](CCCCN)NC(=O)[C@@H](NC(=O)C(C)C)CCNC(=O)CC[C@@H](C(N)=O)NC(=O)[C@H](CCC(N)=O)NC1=O [Example 107, Isobutyryl-c(Dab-Lys-Trp-Ile-Gln-Glu)-NH2] (Isobutyryl-[Dab]KWIQE-NH2; lactam 1-6)
8	CC[C@H](C)[C@@H]1NC(=O)[C@H](Cc2c[nH]c3ccccc23)NC(=O)[C@H](CCCCN)NC(=O)[C@@H](NC(C)=O)CC(=O)NC[C@@H](C(N)=O)NC(=O)[C@H](CCC(N)=O)NC1=O [Example 110, Ac-c(Asp-Lys-Trp-Ile-Gln-Dap)-NH2] (Ac-DKWIQ[Dap]-NH2; lactam 1-6)
5	CC[C@H](C)[C@@H]1NC(=O)[C@H](Cc2c[nH]c3ccccc23)NC(=O)[C@H](CCCCN)NC(=O)[C@@H](NC(C)=O)CNC(=O)C[C@@H](C(N)=O)NC(=O)[C@H](CCC(N)=O)NC1=O [Example 117, Ac-c(Dap-Lys-Trp-Ile-Gln-Asp)-NH2] (Ac-[Dap]KWIQD-NH2; lactam 1-6)
10	CC[C@H](C)[C@@H]1NC(=O)[C@H](Cc2c[nH]c3ccccc23)NC(=O)[C@H](CCCCN)NC(=O)[C@@H](NC(C)=O)CNC(=O)CC[C@@H](C(N)=O)NC(=O)[C@H](CCC(N)=O)NC1=O [Example 121, Ac-c(Dap-Lys-Trp-Ile-Gln-Glu)-NH2] (Ac-[Dap]KWIQE-NH2; lactam 1-6)

— patent US20110038885A1, “CHEMOKINE ANALOGS” (priority 2007, published 2011)
